Laboratory results published in patent US10098852B2 (LAUNX BIOMEDICAL CO., LTD., priority 2014, dated 2018).
Like-named read-outs stand apart in the source and are kept apart here.

Legend:
Assay type in all cases: cell-based
[1] = system: BxPC-3 (pancreatic cancer cell line); assay: Cell viability analysis (WST-1), pancreatic cancer cell line BxPC-3; settings: Homo sapiens
Description: (§1) The cell numbers were counted and reseed as 2×10^6 in cell culture plate/flask. Then, the culture medium was added to a volume of 10 ml, and the cells were cultured for 2-3 days. Then, the cells were suspended for loading into 96-well plates. The cell number was 3000/well and the volume of the culture medium was 100 μl each well.
(§2) Removing the original culture medium from 96-well plate. Then add 100 μl of commercially drug at a concentration of 10 μM per well. After 72 hours, add the diluted WST-1 reagent to the well with 100 μl/well, and the diluted WST-1 reagent was acquired from the dilution of 9:1 medium and WST-1 stock reagent. Finally, the total volume of each well was 200 μl/well. Culture the 96-well plate at 37° C. for 30 to 90 minutes. Detecting and calculate the survival rate of each cancer cells with an ELISA reader at OD450 nm.

[2] = system: AsPC-1 (pancreatic cancer cell line); assay: Cell viability analysis (WST-1), pancreatic cancer cell line AsPC-1; settings: Homo sapiens
Description: as §1, §2

[3] = system: HeLa (Cervix Adenocarcinoma); assay: Cell viability analysis (WST-1), cervical cancer cell line HeLa; settings: Homo sapiens
Description: as §1, §2

pancreatic cancer cell = assay: Summary of the effect on pancreatic cancer cell (AsPC-1, BxPC-3); settings: pancreatic cancer cell (mean of AsPC-1 and BxPC-3 averages), 72 hours, read-out: Inhibitory effect
Description: as §2

[4] = system: U2OS (osteosarcoma cell line); assay: Cell viability analysis (WST-1), osteosarcoma cell line U2OS; settings: Homo sapiens
Description: as §1, §2

[5] = system: TSGH (bladder cancer cell line); assay: Cell viability analysis (WST-1), bladder cancer cell line TSGH
Description: as §1, §2

normal cells = assay: Toxicity to normal cells (overall statement)
[6] = system: PC-3 (Prostate adenocarcinoma); assay: Cell viability analysis (WST-1), prostate cancer cell line PC-3; settings: PC-3, 10 μM
Description: as §1, §2

[7] = system: A375 (amelanotic melanoma); assay: Cell viability analysis (WST-1), skin cancer cell line A375; settings: Homo sapiens
Description: as §1, §2

lung cancer cell = assay: Summary of the effect on lung cancer cell (A549, H1650); settings: lung cancer cell (mean of A549 and H1650 averages), 72 hours, read-out: Inhibitory effect
Description: as §2

[8] = system: C-33A (Cervical carcinoma); assay: Cell viability analysis (WST-1), cervical cancer cell line C-33A; settings: Homo sapiens, 72 h
Description: as §1, §2

ovarian cancer cell = assay: Summary of the effect on ovarian cancer cell (NIH-OVCAR-3, TOV-21G); settings: ovarian cancer cell (mean of NIH-OVCAR-3 and TOV-21G averages), 72 hours, read-out: Inhibitory effect
Description: as §2

[9] = system: SAS (Tongue squamous cell carcinoma); assay: Cell viability analysis (WST-1), tongue cancer cell line SAS
Description: as §1, §2

[10] = system: HCT116-wt (colorectal carcinoma); assay: Cell viability analysis (WST-1), colorectal cancer cell line HCT116-wt
Description: as §1, §2

[11] = system: A549 (lung adenocarcinoma); assay: Cell viability analysis (WST-1), lung cancer cell line A549; settings: Homo sapiens
[12] = Cell viability analysis (WST-1), normal kidney cell line HEK293; settings: human, HEK293 normal kidney cells
Description: as §1, §2

hepatic cancer cell = assay: Summary of the effect on hepatic cancer cell (HepG2, Hep3B); settings: hepatic cancer cell (mean of HepG2 and Hep3B averages), 72 hours, read-out: Inhibitory effect
Description: as §2

bladder cancer cell = assay: Summary of the effect on bladder cancer cell (TSGH, T24); settings: bladder cancer cell (mean of TSGH and T24 averages), 72 hours, read-out: Inhibitory effect
Description: as §2

[13] = system: MDA-MB-231 (Mammary Gland, Adenocarcinoma); assay: Cell viability analysis (WST-1), breast cancer cell line MDA-MB-231; settings: Homo sapiens
Description: as §1, §2

[14] = 72 h, average of 4 tests, read-out: inhibition effect (survival rate of cells), average
[15] = average of 4 tests, read-out: inhibition effect (survival rate of cells), average

With Oc1ccc(OCc2ccccc2)cc1 [Monobenzone] the viability at 10 µM ([1]; BXPC-3, 72 h, BxPC-3, 10 μM, average of 4 tests, read-out: inhibition effect (survival rate of cells), average) was 78.6%, the viability at 10 µM ([1]; BXPC-3, BxPC-3, 10 μM, 72 hours, test 3-4-30 min, read-out: inhibition effect (survival rate of cells)) was 86.3% and the viability at 10 µM ([1]; BXPC-3, BxPC-3, 10 μM, 72 hours, test 3-7-3-30 min, read-out: inhibition effect (survival rate of cells)) was 57.4%. For the same compound, the viability at 10 µM ([1]; BXPC-3, BxPC-3, 10 μM, 72 hours, test 3-7-4-30 min, read-out: inhibition effect (survival rate of cells)) was 100%, the viability at 10 µM ([1]; BXPC-3, BxPC-3, 10 μM, 72 hours, test 3-7-7-30 min, read-out: inhibition effect (survival rate of cells)) was 70.7% and the viability at 10 µM ([2]; ASPC1, 72 h, AsPC-1, 10 μM, average of 4 tests, read-out: inhibition effect (survival rate of cells), average) was 95.1%. The viability at 10 µM ([2]; ASPC1, AsPC-1, 10 μM, 72 hours, test 1-4-30 min, read-out: inhibition effect (survival rate of cells)) was 93.7%, the viability at 10 µM ([2]; ASPC1, AsPC-1, 10 μM, 72 hours, test 1-7-3-30 min, read-out: inhibition effect (survival rate of cells)) was 88.7% and the viability at 10 µM ([2]; ASPC1, AsPC-1, 10 μM, 72 hours, test 1-7-4-30 min, read-out: inhibition effect (survival rate of cells)) was 116%. For the same compound, the viability at 10 µM ([2]; ASPC1, AsPC-1, 10 μM, 72 hours, test 1-7-7-30 min, read-out: inhibition effect (survival rate of cells)) was 81.7%, the viability at 10 µM [3, 14] was 80.1% and the viability at 10 µM ([3]; 72 hours, test 0524-10 min, read-out: inhibition effect (survival rate of cells)) was 82.8%. For the same compound, the viability at 10 µM ([3]; 72 hours, test 0526-10 min, read-out: inhibition effect (survival rate of cells)) was 72.8%, the viability at 10 µM ([3]; 72 hours, test 0529-10 min, read-out: inhibition effect (survival rate of cells)) was 82.7% and the viability at 10 µM ([3]; 72 hours, test 0531-10 min, read-out: inhibition effect (survival rate of cells)) was 81.9%. The viability at 10 µM (pancreatic cancer cell) was 86.8%, the viability at 10 µM [4, 14] was 72.7% and the viability at 10 µM ([4]; 72 h, osteosarcoma cell (U2OS average), read-out: Inhibitory effect) was 72.7%. It also gave a viability at 10 µM ([4]; 72 hours, test 6-26-10 min, read-out: inhibition effect (survival rate of cells)) of 69.3%, a viability at 10 µM ([4]; 72 hours, test 6-28-10 min, read-out: inhibition effect (survival rate of cells)) of 66.7% and a viability at 10 µM ([4]; 72 hours, test 6-30-10 min, read-out: inhibition effect (survival rate of cells)) of 73%. The viability at 10 µM ([4]; 72 hours, test 7-3-10 min, read-out: inhibition effect (survival rate of cells)) was 81.7%, the viability at 10 µM [5, 14] was 84.6% and the viability at 10 µM ([5]; 72 hours, test 0510-10 min, read-out: inhibition effect (survival rate of cells)) was 90.2%. The viability at 10 µM ([5]; 72 hours, test 0512-10 min, read-out: inhibition effect (survival rate of cells)) was 92.8%, the viability at 10 µM ([5]; 72 hours, test 0515-10 min, read-out: inhibition effect (survival rate of cells)) was 83% and the viability at 10 µM ([5]; 72 hours, test 0517-10 min, read-out: inhibition effect (survival rate of cells)) was 72.5%. The “toxicity to normal cells (in words)” value (normal cells) was “no toxicity or had little toxicity to normal cells”, the viability at 10 µM [6, 14] was 62.5% and the viability at 10 µM ([6]; 72 hours, test PC-3-0524-10 min, read-out: inhibition effect (survival rate of cells)) was 57%. The viability at 10 µM ([6]; 72 hours, test PC-3-0526-10 min, read-out: inhibition effect (survival rate of cells)) was 70.6%, the viability at 10 µM ([6]; 72 hours, test PC-3-0529-10 min, read-out: inhibition effect (survival rate of cells)) was 63.2% and the viability at 10 µM ([6]; 72 hours, test PC-3-0531-10 min, read-out: inhibition effect (survival rate of cells)) was 59%. It also gave a viability at 10 µM ([7]; A-375, 72 h, A375, 10 μM, average of 4 tests, read-out: inhibition effect (survival rate of cells), Average) of 76.4%, a viability at 10 µM ([7]; A-375, A375, 10 μM, 72 hours, test 0602-30 min, read-out: inhibition effect (survival rate of cells)) of 56.7% and a viability at 10 µM ([7]; A-375, A375, 10 μM, 72 hours, test 0605-10 min, read-out: inhibition effect (survival rate of cells)) of 64.8%. For the same compound, the viability at 10 µM ([7]; A-375, A375, 10 μM, 72 hours, test 0607-10 min, read-out: inhibition effect (survival rate of cells)) was 77.3%, the viability at 10 µM ([7]; A-375, A375, 10 μM, 72 hours, test 0609-10 min, read-out: inhibition effect (survival rate of cells)) was 107% and the viability at 10 µM (lung cancer cell) was 89.8%. It also gave a viability at 10 µM [8, 15] of 62.3%, a viability at 10 µM ([8]; test 1, read-out: inhibition effect (survival rate of cells)) of 57.9% and a viability at 10 µM ([8]; test 2, read-out: inhibition effect (survival rate of cells)) of 66.2%. For the same compound, the viability at 10 µM ([8]; test 3, read-out: inhibition effect (survival rate of cells)) was 61%, the viability at 10 µM ([8]; test 4, read-out: inhibition effect (survival rate of cells)) was 64.3% and the viability at 10 µM (ovarian cancer cell) was 85%. It also gave a viability at 10 µM ([9]; 72 h, SAS, average of 4 tests, read-out: inhibition effect (survival rate of cells), average) of 90.3%, a viability at 10 µM ([9]; 72 h, tongue cancer cell (SAS average), read-out: Inhibitory effect) of 90.3% and a viability at 10 µM ([9]; SAS, 72 hours, test 6-26-10 min, read-out: inhibition effect (survival rate of cells)) of 97.3%. It also gave a viability at 10 µM ([9]; SAS, 72 hours, test 6-28-10 min, read-out: inhibition effect (survival rate of cells)) of 59.4%, a viability at 10 µM ([9]; SAS, 72 hours, test 6-30-10 min, read-out: inhibition effect (survival rate of cells)) of 89.6% and a viability at 10 µM ([9]; SAS, 72 hours, test 7-3-10 min, read-out: inhibition effect (survival rate of cells)) of 115%. The viability at 10 µM [10, 14] was 95%, the viability at 10 µM ([10]; 72 hours, test 0602-30 min, read-out: inhibition effect (survival rate of cells)) was 91.1% and the viability at 10 µM ([10]; 72 hours, test 0605-10 min, read-out: inhibition effect (survival rate of cells)) was 104%. It also gave a viability at 10 µM ([10]; 72 hours, test 0607-10 min, read-out: inhibition effect (survival rate of cells)) of 99.9%, a viability at 10 µM ([10]; 72 hours, test 0609-10 min, read-out: inhibition effect (survival rate of cells)) of 85.3% and a viability at 10 µM ([11]; A549, 72 h, A549, 10 μM, average of 4 tests, read-out: inhibition effect (survival rate of cells), Average) of 93.4%. For the same compound, the viability at 10 µM ([11]; A549, A549, 10 μM, 72 hours, test 0524-10 min, read-out: inhibition effect (survival rate of cells)) was 80.8%, the viability at 10 µM ([11]; A549, A549, 10 μM, 72 hours, test 0526-10 min, read-out: inhibition effect (survival rate of cells)) was 111% and the viability at 10 µM ([11]; A549, A549, 10 μM, 72 hours, test 0529-10 min, read-out: inhibition effect (survival rate of cells)) was 80.8%. It also gave a viability at 72 h, 10 µM [12, 15] of 93%, a viability at 72 h, 10 µM ([12]; test 0602-30 min, read-out: inhibition effect (survival rate of cells)) of 82.7% and a viability at 72 h, 10 µM ([12]; test 0605-30 min, read-out: inhibition effect (survival rate of cells)) of 99.4%. For the same compound, the viability at 72 h, 10 µM ([12]; test 0607-30 min, read-out: inhibition effect (survival rate of cells)) was 97.9%, the viability at 72 h, 10 µM ([12]; test 0609-30 min, read-out: inhibition effect (survival rate of cells)) was 91.8% and the viability at 10 µM (hepatic cancer cell) was 95.4%. The viability at 10 µM (bladder cancer cell) was 85.8%, the viability at 10 µM ([13]; MDA-MB-231, 72 h, MDA-MB-231, 10 μM, average of 4 tests, read-out: inhibition effect (survival rate of cells), average) was 80.1% and the viability at 10 µM ([13]; MDA-MB-231, MDA-MB-231, 10 μM, 72 hours, test 0612-10 min, read-out: inhibition effect (survival rate of cells)) was 91.3%. The viability at 10 µM ([13]; MDA-MB-231, MDA-MB-231, 10 μM, 72 hours, test 0614-10 min, read-out: inhibition effect (survival rate of cells)) was 67.6%, the viability at 10 µM ([13]; MDA-MB-231, MDA-MB-231, 10 μM, 72 hours, test 0616-10 min, read-out: inhibition effect (survival rate of cells)) was 69.6% and the viability at 10 µM ([13]; MDA-MB-231, MDA-MB-231, 10 μM, 72 hours, test 0619-10 min, read-out: inhibition effect (survival rate of cells)) was 92%.
